From PubChem BioAssay (NCI)
Several values for one entry are separate records, joined by “and”; a condition that tells them apart may be missing. Identical values can stand only once.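 Protocol summary: plate cells (96-well), add compound at 5 concentrations, incubate 48 h, interpolate endpoints linearly. GI50 marks 50% less growth. The concentration for full growth arrest is given as TGI.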

Assays:
Test in all cases: NCI-60 cell line screen, 48 h
NCI-H460 lung = tested on: NCI-H460 lung
HCC-2998 colon = tested on: HCC-2998 colon
MALME-3M melanoma = tested on: MALME-3M melanoma
MDA-MB-231 breast = tested on: MDA-MB-231 breast
M14 melanoma = tested on: M14 melanoma
HL-60(TB) leukemia = tested on: HL-60(TB) leukemia
SK-OV-3 ovarian = tested on: SK-OV-3 ovarian
CCRF-CEM leukemia = tested on: CCRF-CEM leukemia
SF-539 CNS = tested on: SF-539 CNS
SNB-75 CNS = tested on: SNB-75 CNS

SMILES	GI50 (NCI-H460 lung) [µM]	TGI (NCI-H460 lung) [µM]	GI50 (HCC-2998 colon) [µM]	TGI (HCC-2998 colon) [µM]	GI50 (MALME-3M melanoma)	TGI (MALME-3M melanoma)	GI50 (MDA-MB-231 breast) [µM]	TGI (MDA-MB-231 breast) [µM]	GI50 (M14 melanoma) [µM]	TGI (M14 melanoma) [µM]	GI50 (HL-60(TB) leukemia)	TGI (HL-60(TB) leukemia)	GI50 (SK-OV-3 ovarian)	TGI (SK-OV-3 ovarian)	GI50 (CCRF-CEM leukemia)	TGI (CCRF-CEM leukemia) [µM]	GI50 (SF-539 CNS)	TGI (SF-539 CNS)	GI50 (SNB-75 CNS)	TGI (SNB-75 CNS)
O=C(/C=C/C12c3ccccc3C(c3ccccc31)C1C(=O)NC(=O)C12)c1ccco1 (stereo unspecified)	1.8	3.98	1.79	3.52	2.35 µM	6.72 µM	3.85	15.4	3.1	11.2	1.58 µM	4.89 µM	4.01 µM	12.8 µM	1.24 µM	9.57	2.04 µM	4.16 µM	3.44 µM	12.2 µM
O=C(CCc1ccc(O)c(O)c1)c1ccc(O)c(O)c1O	–	36.2	–	> 100	–	> 100 µM	–	55.5	–	41.7	–	32.6 µM	–	> 100 µM	–	47.3	–	37.7 µM	–	> 100 µM
CC1=Cc2cc3[n-]c(cc4nc(cc5[n-]c(cc1n2)c(C)c5CCC(=O)O)C(CCC(=O)O)=C4C)cc3C.[Cu+2]	> 100	> 100	> 100	> 100	> 1 µM and 7.39 µM	> 1 µM and 18.6 µM	22.6	50.3	> 79.1	> 100	> 1 µM and 22.2 µM	> 1 µM and 51.2 µM	> 1 µM and 18.8 µM	> 1 µM and 41.9 µM	> 1 µM and 12.1 µM	> 68.5	< 1 µM and 3.52 µM	> 1 µM and 11.6 µM	> 1 µM and 8.39 µM	> 1 µM and 18.7 µM
CCOC(=O)CCc1c(C)c2ccc(O)cc2oc1=O	–	> 100	–	> 100	–	> 100 µM	–	> 100	–	> 100	–	> 100 µM	–	–	–	> 100	–	> 100 µM	–	> 100 µM
CCOC(=O)c1ccc2[nH]c(Cc3[nH]c4ccc(C(=O)OCC)cc4c3C)c(C)c2c1	0.167	6.44	4.35	59.3	3.73 µM	17.7 µM	2.4	12.3	5.98	34.1	3.81 µM	46.8 µM	2.04 µM	16.6 µM	1.58 µM	28.7	1.37 µM	13.3 µM	4.2 µM	23.4 µM
CC1(C)CC2=NOS3=C2C(=NO3)C1c1ccccn1 (stereo unspecified)	–	> 100	–	> 100	–	> 100 µM	–	> 100	–	> 100	–	51.7 µM	–	> 100 µM	–	78.4	–	> 100 µM	–	> 100 µM
Cc1cc(Nc2ncc(Cl)c(Nc3ccccc3S(=O)(=O)C(C)C)n2)c(OC(C)C)cc1C1CCNCC1	1.2	2.83	0.991	2.21	0.857 µM and 0.265 µM	2.25 µM and 1.25 µM	1.37	2.71	1.37	2.9	0.253 µM	1.64 µM	2.02 µM and 1.67 µM	4.39 µM and 3.03 µM	1.87 µM	4.18	1.62 µM	2.99 µM	1.2 µM	2.44 µM
Cc1cc(Nc2nc(N3CCOCC3)nc3ccccc23)n[nH]1	4.45	> 100	24.8	> 100	44.2 µM	> 100 µM	15	> 100	7.14	> 100	5.5 µM	50.1 µM	3.69 µM	40.9 µM	4.03 µM	> 100	4.27 µM	16.6 µM	1.55 µM	7.49 µM
Nc1nc(F)nc2c1ncn2C1OC(COP(=O)(O)O)C(O)C1O (stereo unspecified)	–	616	–	1170	–	254 µM	–	772	–	66.7	–	71.9 µM	–	292 µM	–	202	–	859 µM	–	713 µM
COc1ccc2c(c1)C(=O)c1c-2c(N2CCN(C(=O)CN(C)C)CC2)nc2ccccc12	6.01	20.6	15.2	40.5	23 µM	58.1 µM	13.3	28.9	15.6	31.5	20 µM	52.4 µM	19.6 µM	> 100 µM	10.7 µM	27.1	15.1 µM	30.3 µM	11.8 µM	27.7 µM
C=C1C(=O)O[C@H]2[C@H]1CC/C(COC(=O)N[C@@H](Cc1c[nH]c3ccccc13)C(=O)OC)=C\CC[C@@]1(C)O[C@@H]21	3.4	12.6	1.95	4.01	1.51 µM	3.07 µM	1.41	3.16	1.59	3.35	0.363 µM	1.89 µM	12 µM	24.6 µM	0.621 µM	3.18	1.45 µM	2.92 µM	4.45 µM	19.3 µM
Cc1ccc(-c2nc3nc(-c4ccc(Cl)cc4)nc(N4CCCNCC4)c3o2)cc1	1.93	3.76	1.89	3.54	1.7 µM	3.17 µM	1.83	3.37	1.75	3.34	1.4 µM	3.25 µM	1.75 µM	3.29 µM	0.7 µM	2.91	1.71 µM	3.12 µM	1.2 µM	2.47 µM
N#C/C(=C\c1ccc(Br)cc1)n1nnc2cc(F)c(F)cc21	1.96	3.98	2.02	3.67	1.59 µM	3.12 µM	2.23	5.92	–	–	2.07 µM	4.96 µM	–	–	1.48 µM	8.81	1.86 µM	3.39 µM	–	–
O=C(Nc1cccc(-c2nc3ccccc3[nH]2)c1)c1cccc(NC(=O)c2ccco2)c1	1.67	3.03	10	21.5	2.11 µM	4.34 µM	1.98	4.85	–	–	5.43 µM	17.4 µM	2.35 µM	4.42 µM	3.99 µM	16.1	1.49 µM	2.88 µM	1.55 µM	2.91 µM
